What was measured:
rabbit eyes = test: Ophthalmic observations (slit lamp, McDonald Shadduck) in the rabbit IOP study; format: in vivo, New Zealand White rabbits; design: key to Conjunctival congestion Score: A flushed, reddish color predominantly confined to the palpebral conjunctiva with some perilimbal injection but primarily confined to the lower and upper parts of the eye from the 4:00 to 7:00 and 11:00 to 1:00 positions; conditions: for Conjunctival congestion Score / Ophthalmic Observation (Slit-Lamp): 0.1% Dexamethasone 4 x daily, treated right eye; for Conjunctival congestion Score: individual rabbit; for Ophthalmic Observation (Slit-Lamp): individual rabbits
Protocol: (§1) On Days 1-31, animals received daily topical doses of the appropriate test article into the right eye. Animals were dosed four times per day, with doses administered 2 hours apart. Doses were administered using a calibrated 50-μL pipette. The eyelids were held close for 10 seconds immediately following dosing. The time of each dose administration was recorded.
Ophthalmic examinations (slit lamp) were performed prior to the first dosing on Days 5, 12, 22, 26, and 33. Ocular findings were scored according to the McDonald Shadduck system and recorded using a standardized data collection sheet.

[1] = system: intraocular pressure (IOP) in New Zealand White rabbits; test: Intraocular pressure in New Zealand White rabbits, topical dosing four times daily; format: in vivo
Protocol: as §1
Intraocular pressure (“IOP”) was determined for both eyes of each animal on Days 3, 5, 10, 12, 16, 18, 22, 24, 26, 30, and 32. LOP was evaluated with a Medtronic Solan, Model 30 classic pneumatonometer. Proparacaine hydrochloride 0.5% (1 drop) was delivered to each eye prior to IOP measurement. IOP was measured on Monday, Wednesday, and Friday of each week. A two-point diurnal curve was established: IOP was recorded at 8 a.m. and 12 p.m. on Day 3, and at 8 a.m. and 2 p.m. on later days, with a ±1 hour range for each of these times. The time of the measurements was recorded.
Descriptive statistics were prepared for IOP data of each treatment group (left and right eyes separately) at each measurement interval. The statistics included the number of observations (“N”), mean, standard deviation (“STD”), and standard error (“SEM”). Statistical analyses were conducted on IOP results using Statistical Analysis Systems (SAS Institute, Inc., Cary, N.C., V8.0). Parameters were evaluated using analysis of variance/GLM Procedure followed by Tukey's Standardized Range Test (Tukey, 1985) for post hoc comparisons of group means. The level of significance was set at a probability of p<0.05 for all statistical procedures. Group IOP means were compared at each interval, with left and right eyes compared separately.
IOP data for the following six animals were excluded from group statistics: Group A, Nos. 3081, 3037, 3068, and 3011; Group C, No. 3034; and Group E, No. 3084.

Compound: C[C@@H]1C[C@H]2[C@@H]3CCC4=CC(=O)C=C[C@]4(C)[C@@]3(F)[C@@H](O)C[C@]2(C)[C@@]1(O)C(=O)CO [dexamethasone, reference compound]
- Conjunctival congestion Score (rabbit eyes; Day 5): 1
- Conjunctival congestion Score (rabbit eyes; Day 22): 1
- Ophthalmic Observation (Slit-Lamp) (rabbit eyes; Day 5): Conjunctival Congestion
- Ophthalmic Observation (Slit-Lamp) (rabbit eyes; Day 22): Conjunctival Congestion
- Ocular finding associated with unilateral topical instillation (rabbit eyes; four times daily up to 31 days, BOL-303242-X 0.05, 0.25 or 0.5 mg/dose, dexamethasone 0.05 mg/dose): sporadic mild conjunctival congestion
- Mean IOP versus corresponding eyes of other groups ([1]; 0.1% dexamethasone suspension, on several days, p<0.05): significantly higher
- Mean IOP after treatment began ([1]; rabbits, right eye four times daily up to 31 days, dexamethasone 0.1%, BOL-303242-X 1, 5, 10 mg/g, left and right eyes): increased sharply
